This passage reports Ki and GI50 results from patent US11596639B2, “Substituted indole Mcl-1 inhibitors” (Vanderbilt University, priority 2016, dated 2023).

Where two headings read alike, the source gives them in different places. Bounds are passed on as bounds.

One experiment has as its target Mcl-1 (Homo sapiens (Human), UniProt Q07820). Nature of the experiment: Fluorescence polarization anisotropy (FPA) competition assay, FITC-Bak or FITC-Bim BH3 peptide. It counts as binding. The following applies: read-out: Ki for Inhibition of Mcl-1 by FPA assay. On the technique in general: Polarisation of emitted light reports the rotation of a fluorescent probe.
Experiment [1] deals with H929 human cancer cell lines. The experiment can be described thus: Cellular viability / proliferation (Cell TiterGlo, 72 h). Format: cell-based. The essentials:
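Compounds were added as 2-fold serial dilutions from 50 μM (final DMSO <1%) to H929 cells seeded 1,000 per well in 10% FBS medium one day earlier.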
(Cellular ATP, detected with luciferase, serves as a proxy for viable cell number.)

Setting [2] is: Homo sapiens, NCI-H929, 72 h, read-out: GI50 on cellular proliferation of H929 human cancer cell lines, H929 cells, 72 h, Cell TiterGlo, 10% FBS.
[3] abbreviates: H929 cells, 72 h, Cell TiterGlo, 10% FBS, read-out: GI50 on cellular proliferation of H929 human cancer cell lines.

Broadly, the Ki is a dissociation constant, usually derived from enzyme kinetics or from competition with a known ligand.

Chain of Mcl-1 (Q07820 172-327): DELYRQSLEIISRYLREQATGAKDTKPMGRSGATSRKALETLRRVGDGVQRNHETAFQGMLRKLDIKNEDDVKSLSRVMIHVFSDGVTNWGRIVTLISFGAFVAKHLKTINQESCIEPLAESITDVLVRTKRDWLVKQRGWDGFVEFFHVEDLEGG

For `Cc1cc(OCCCc2c3n(c4c(-c5c(C)nn(C)c5C)c(Cl)ccc24)[C@H](C)CN(c2cccc4cc(-c5nnco5)n(C)c24)C3=O)cc(C)c1Cl` [Example 341, (R)-7-Chloro-10-(3-(4-chloro-3,5-dimethylphenoxy)propyl)-4-methyl-2-(1-methyl-2-(1,3,4-oxadiazol-2-yl)-1H-indol-7-yl)-6-(1,3,5-trimethyl-1H-pyrazol-4-yl)-3,4-dihydropyrazino[1,2-a]indol-1(2H)-one], the Ki on Mcl-1 was 4.2 nM. Besides, in experiment [1] (setting [2]), the GI50 is 920 nM.
On to `COc1cc(N2C[C@@H](C)n3c(c(CCCOc4cc(C)c(Cl)c(C)c4)c4ccc(Cl)c(-c5c(C)nn(C)c5C)c43)C2=O)c2c(c1)cc(C(=O)O)n2C` [Example 342, (R)-7-(7-Chloro-10-(3-(4-chloro-3,5-dimethylphenoxy)propyl)-4-methyl-1-oxo-6-(1,3,5-trimethyl-1H-pyrazol-4-yl)-3,4-dihydropyrazino[1,2-a]indol-2(1H)-yl)-5-methoxy-1-methyl-1H-indole-2-carboxylic acid], for which the Ki on Mcl-1 is less than 1 nM. Moreover, the GI50 in experiment [1] (setting [2]) is 230 nM.
For `Cc1cc(OCCCc2c3n(c4c(-c5c(C)nn(C)c5C)c(Cl)ccc24)[C@H](C)CN(c2cn(C)c4cc(-c5nnco5)ccc24)C3=O)cc(C)c1Cl` [Example 343, (R)-7-Chloro-10-(3-(4-chloro-3,5-dimethylphenoxy)propyl)-4-methyl-2-(1-methyl-6-(1,3,4-oxadiazol-2-yl)-1H-indol-3-yl)-6-(1,3,5-trimethyl-1H-pyrazol-4-yl)-3,4-dihydropyrazino[1,2-a]indol-1(2H)-one], the Ki at Mcl-1 turned out to be 3.7 nM. Also, the GI50 in experiment [1] (setting [2]) came out at 3600 nM.
Turning to `COc1ccc(N2C[C@@H](C)n3c(c(CCCOc4cc(C)c(Cl)c(C)c4)c4ccc(Cl)c(-c5c(C)nn(C)c5C)c43)C2=O)c2cc(C(=O)O)n(C)c12` [Example 344, (M, R)-4-(7-Chloro-10-(3-(4-chloro-3,5-dimethylphenoxy)propyl)-4-methyl-1-oxo-6-(1,3,5-trimethyl-1H-pyrazol-4-yl)-3,4-dihydropyrazino[1,2-a]indol-2(1H)-yl)-7-methoxy-1-methyl-1H-indole-2-carboxylic acid], on Mcl-1, the Ki was less than 1 nM. Moreover, in experiment [1] (setting [3]), the GI50 was 1300 nM.
In the same order, the values of `Cc1cc(OCCCc2c3n(c4c(-c5c(C)nn(C)c5C)c(Cl)ccc24)[C@H](C)CN(c2cc(OCc4ccccc4)cc4cc(C(=O)O)n(C)c24)C3=O)cc(C)c1Cl` [Example 345, (P, R)-5-(Benzyloxy)-7-(7-chloro-10-(3-(4-chloro-3,5-dimethylphenoxy)propyl)-4-methyl-1-oxo-6-(1,3,5-trimethyl-1H-pyrazol-4-yl)-3,4-dihydropyrazino[1,2-a]indol-2(1H)-yl)-1-methyl-1H-indole-2-carboxylic acid] are 3.5 nM and 1800 nM.
With `Cc1cc(OCCCc2c3n(c4c(-c5c(C)nn(C)c5C)c(Cl)ccc24)[C@H](C)CN(c2cn(C)c4ccc(-c5nnco5)cc24)C3=O)cc(C)c1Cl` [Example 346, (R)-7-Chloro-10-(3-(4-chloro-3,5-dimethylphenoxy)propyl)-4-methyl-2-(1-methyl-5-(1,3,4-oxadiazol-2-yl)-1H-indol-3-yl)-6-(1,3,5-trimethyl-1H-pyrazol-4-yl)-3,4-dihydropyrazino[1,2-a]indol-1(2H)-one], the inhibition constant Ki on Mcl-1 is 5.1 nM. In addition, the GI50 in experiment [1] (setting [2]) came to 1600 nM.
In the same order, the values of `Cc1cc(OCCCc2c3n(c4c(-c5c(C)nn(C)c5C)c(Cl)ccc24)[C@H](C)CN(c2cccc4c2cc(-c2nnco2)n4C)C3=O)cc(C)c1Cl` [Example 347, (R)-7-Chloro-10-(3-(4-chloro-3,5-dimethylphenoxy)propyl)-4-methyl-2-(1-methyl-2-(1,3,4-oxadiazol-2-yl)-1H-indol-4-yl)-6-(1,3,5-trimethyl-1H-pyrazol-4-yl)-3,4-dihydropyrazino[1,2-a]indol-1(2H)-one] are 3.6 nM and 1900 nM.
Take `Cc1cc(OCCCc2c3n(c4c(-c5c(C)nn(C)c5C)c(Cl)ccc24)[C@H](C)CN(c2cn(C)c4cc(F)c(C(=O)O)cc24)C3=O)cc(C)c1Cl` [Example 348, (P, R)-3-(7-Chloro-10-(3-(4-chloro-3,5-dimethylphenoxy)propyl)-4-methyl-1-oxo-6-(1,3,5-trimethyl-1H-pyrazol-4-yl)-3,4-dihydropyrazino[1,2-a]indol-2(1H)-yl)-6-fluoro-1-methyl-1H-indole-5-carboxylic acid]: the Ki at Mcl-1 was 1.8 nM. The GI50 in experiment [1] (setting [3]) came to 1300 nM.
On the same counts, the results for `Cc1cc(OCCCc2c3n(c4c(-c5c(C)nn(C)c5C)c(Cl)ccc24)[C@H](C)CN(c2cccc4ccc(C(=O)O)cc24)C3=O)cc(C)c1Cl` [Example 349, (M, R)-8-(7-Chloro-10-(3-(4-chloro-3,5-dimethylphenoxy)propyl)-4-methyl-1-oxo-6-(1,3,5-trimethyl-1H-pyrazol-4-yl)-3,4-dihydropyrazino[1,2-a]indol-2(1H)-yl)-2-naphthoic acid] are 2.8 nM and 780 nM.
Consider `Cc1cc(OCCCc2c3n(c4c(-c5c(C)nn(C)c5C)c(Cl)ccc24)[C@H](C)CN(c2cn(C)c4ccc(-c5nnn(C)n5)cc24)C3=O)cc(C)c1Cl` [Example 350, (R)-7-Chloro-10-(3-(4-chloro-3,5-dimethylphenoxy)propyl)-4-methyl-2-(1-methyl-5-(2-methyl-2H-tetrazol-5-yl)-1H-indol-3-yl)-6-(1,3,5-trimethyl-1H-pyrazol-4-yl)-3,4-dihydropyrazino[1,2-a]indol-1(2H)-one], for which the Ki at Mcl-1 is less than 1 nM. In experiment [1] (setting [2]), the GI50 was 300 nM.
In the same order, the values of `Cc1cc(OCCCc2c3n(c4c(-c5c(C)nn(C)c5C)c(Cl)ccc24)[C@H](C)CN(c2cccc4c2cc(C(=O)O)n4Cc2ccccn2)C3=O)cc(C)c1Cl` [Example 352, (R)-4-(7-chloro-10-(3-(4-chloro-3,5-dimethylphenoxy)propyl)-4-methyl-1-oxo-6-(1,3,5-trimethyl-1H-pyrazol-4-yl)-3,4-dihydropyrazino[1,2-a]indol-2(1H)-yl)-1-(pyridin-2-ylmethyl)-1H-indole-2-carboxylic acid] are 2.8 nM and 5100 nM.
On the same counts, the results for `COCCn1c(C(=O)O)cc2c(N3C[C@@H](C)n4c(c(CCCOc5cc(C)c(Cl)c(C)c5)c5ccc(Cl)c(-c6c(C)nn(C)c6C)c54)C3=O)cccc21` [Example 353, (R)-4-(7-Chloro-10-(3-(4-chloro-3,5-dimethylphenoxy)propyl)-4-methyl-1-oxo-6-(1,3,5-trimethyl-1H-pyrazol-4-yl)-3,4-dihydropyrazino[1,2-a]indol-2(1H)-yl)-1-(2-methoxyethyl)-1H-indole-2-carboxylic acid] are 2.1 nM and 2900 nM.
Consider `COCCn1c(C(N)=O)cc2cccc(N3C[C@@H](C)n4c(c(CCCOc5cc(C)c(Cl)c(C)c5)c5ccc(Cl)c(-c6c(C)nn(C)c6C)c54)C3=O)c21` [Example 354, (R)-7-(7-Chloro-10-(3-(4-chloro-3,5-dimethylphenoxy)propyl)-4-methyl-1-oxo-6-(1,3,5-trimethyl-1H-pyrazol-4-yl)-3,4-dihydropyrazino[1,2-a]indol-2(1H)-yl)-1-(2-methoxyethyl)-1H-indole-2-carboxamide], for which the Ki at Mcl-1 amounted to 4.3 nM. Also, the GI50 in experiment [1] (setting [2]) is 580 nM.
Regarding `Cc1cc(OCCCc2c3n(c4c(-c5c(C)nn(C)c5C)c(Cl)ccc24)[C@H](C)CN(c2cn(C)c4cc(F)c(C(=O)O)cc24)C3=O)cc(C)c1Cl` [Example 355, (M, R)-3-(7-Chloro-10-(3-(4-chloro-3,5-dimethylphenoxy)propyl)-4-methyl-1-oxo-6-(1,3,5-trimethyl-1H-pyrazol-4-yl)-3,4-dihydropyrazino[1,2-a]indol-2(1H)-yl)-6-fluoro-1-methyl-1H-indole-5-carboxylic acid], the Ki at Mcl-1 was determined as 1 nM. Besides, the GI50 in experiment [1] (setting [3]) was determined as 730 nM.
On to `Cc1cc(OCCCc2c3n(c4c(-c5c(C)nn(C)c5C)c(Cl)ccc24)[C@H](C)CN(c2cc(C(C)C)cc4cc(C(=O)O)n(C)c24)C3=O)cc(C)c1Cl` [Example 356, (R)-7-(7-Chloro-10-(3-(4-chloro-3,5-dimethylphenoxy)propyl)-4-methyl-1-oxo-6-(1,3,5-trimethyl-1H-pyrazol-4-yl)-3,4-dihydropyrazino[1,2-a]indol-2(1H)-yl)-5-isopropyl-1-methyl-1H-indole-2-carboxylic acid], for which the Ki at Mcl-1 was 1.9 nM. Also, the GI50 in experiment [1] (setting [2]) turned out to be 650 nM.
In the same order, the values of `Cc1cc(OCCCc2c3n(c4c(-c5c(C)nn(C)c5C)c(Cl)ccc24)[C@H](C)CN(c2cn(C)c4ccc(-c5nnnn5C)cc24)C3=O)cc(C)c1Cl` [Example 358, (R)-7-Chloro-10-(3-(4-chloro-3,5-dimethylphenoxy)propyl)-4-methyl-2-(1-methyl-5-(1-methyl-1H-tetrazol-5-yl)-1H-indol-3-yl)-6-(1,3,5-trimethyl-1H-pyrazol-4-yl)-3,4-dihydropyrazino[1,2-a]indol-1(2H)-one] are 4.2 nM and 2300 nM.
On the same counts, the results for `Cc1cc(OCCCc2c3n(c4c(-c5c(C)nn(C)c5C)c(Cl)ccc24)[C@H](C)CN(c2cc(C(C)C)cc4cc(C(=O)O)n(Cc5ccccn5)c24)C3=O)cc(C)c1Cl` [Example 359, (R)-7-(7-Chloro-10-(3-(4-chloro-3,5-dimethylphenoxy)propyl)-4-methyl-1-oxo-6-(1,3,5-trimethyl-1H-pyrazol-4-yl)-3,4-dihydropyrazino[1,2-a]indol-2(1H)-yl)-5-isopropyl-1-(pyridin-2-ylmethyl)-1H-indole-2-carboxylic acid] are 1.4 nM and 290 nM.
